As a reminder, the MIC is the smallest concentration in the dilution series that meets the test's criterion for growth inhibition. The low end stands for a more susceptible organism, the high end for a less susceptible organism.

We go through nine molecules from DBAASP.

Converted amounts (≈) assume the structure as drawn.

Some test systems named below: Bacillus cereus; Escherichia coli; Leuconostoc lactis; Listeria innocua; Micrococcus luteus; Pasteurella multocida; Staphylococcus aureus; Streptococcus uberis; Bacillus subtilis 168; Escherichia coli K-12; Bacillus subtilis.
Assay in all cases: ≥ marks a high value that may be exact or a test limit, other limits are often not marked, values filed in µg/mL are converted to µM
The test system of test [1] is Batrachochytrium dendrobatidis.
Test [2] deals with Escherichia coli ATCC 25922.
Test [3] has as its system Staphylococcus aureus NCTC 8325.
Test [4] has as its system Staphylococcus epidermidis.
The subject of test [5] is Pseudomonas aeruginosa PAO1.
Test [6] concerns Staphylococcus aureus USA 300.
The subject of test [7] is Enterococcus faecalis ATCC 29212.
Test [8] has as its system Klebsiella pneumoniae ATCC 13883.
Test [9] has as its system Pseudomonas aeruginosa ATCC 27853.
The test system of test [10] is Salmonella enterica subsp. enterica serovar Typhimurium ATCC 14028.
The subject of test [11] is Staphylococcus aureus ATCC 25923.
Test [12] has as its system Streptococcus pyogenes ATCC 19615.
Test [13] deals with Bacillus subtilis ATCC 6633.
Test [14] has as its system Klebsiella pneumoniae ATCC 10031.
Test [15] has as its system Micrococcus luteus ATCC 10240.
Test [16] has as its system Shigella dysenteriae ATCC 9752.
Test [17] deals with Staphylococcus aureus ATCC 6538P.
The test system of test [18] is Staphylococcus aureus TK784.
The subject of test [19] is Staphylococcus epidermidis ATCC 12228.

`CC[C@H](C)[C@H](NC(=O)[C@@H](NC(=O)[C@@H]1CCCN1C(=O)[C@H](CC(C)C)NC(=O)[C@@H](N)Cc1ccccc1)[C@@H](C)CC)C(=O)N[C@@H](C)C(=O)N[C@@H](CO)C(=O)N[C@@H](CC(C)C)C(=O)N[C@@H](CC(C)C)C(=O)N[C@@H](CO)C(=O)N[C@@H](CCCCN)C(=O)N[C@@H](CC(C)C)C(=O)N[C@@H](CC(C)C)C(N)=O` [FLPIIASLLSKLL]: the MIC in [1] is at least 32.2 µM.

For the molecule `CC[C@H](C)[C@H](NC(=O)CN)C(=O)N[C@@H](CC(C)C)C(=O)N[C@@H](CO)C(=O)N[C@H](C(=O)N[C@@H](Cc1ccccc1)C(=O)N[C@@H](CCCCN)C(=O)NCC(=O)N[C@@H](CC(C)C)C(=O)N[C@@H](C)C(=O)N[C@@H](CCCCN)C(=O)NCC(=O)N[C@H](C(=O)N[C@@H](C)C(=O)N[C@@H](CCCCN)C(=O)N[C@@H](CC(=O)O)C(=O)N[C@@H](CC(C)C)C(=O)N[C@@H](C)C(=O)NCC(=O)N[C@@H](CC(N)=O)C(=O)N[C@@H](CC(C)C)C(=O)N[C@@H](CC(C)C)C(=O)N[C@@H](CC(=O)O)C(=O)N[C@@H](CCCCN)C(=O)N[C@@H](Cc1ccccc1)C(=O)N[C@@H](CCCCN)C(=O)N[C@H]1CSSC[C@@H](C(=O)O)NC(=O)CNC(=O)[C@H]([C@@H](C)O)NC(=O)[C@H]([C@@H](C)CC)NC(=O)[C@H](CCCCN)NC1=O)C(C)C)[C@@H](C)O` [GILSTFKGLAKGVAKDLAGNLLDKFKCKITGC], the MIC in test [1] stood at 25 µM (≈ 82.7 µg/mL); in [2], 7 µM (≈ 23.2 µg/mL); in [3], 27 µM (≈ 89.3 µg/mL).

Turning to `CC[C@H](C)[C@H](NC(=O)[C@@H](NC(=O)[C@H](C)NC(=O)[C@H](C)NC(=O)[C@@H](NC(=O)[C@H](CCCCN)NC(=O)[C@H](CCCCN)NC(=O)[C@@H](NC(=O)[C@@H](NC(=O)[C@H](C)NC(=O)[C@H](Cc1ccccc1)NC(=O)[C@H](CC(C)C)NC(=O)CN)C(C)C)[C@@H](C)CC)C(C)C)C(C)C)C(=O)N[C@@H](CCCCN)C(=O)N[C@@H](CCCCN)C(=O)N[C@@H](CC(C)C)C(N)=O` [GLFAVIKKVAAVIKKL], the MIC in the test on Bacillus cereus was at least 58.9 µM; in [1] it was at least 141 µM; with Escherichia coli it was 58.9 µM (≈ 99.9 µg/mL); against Leuconostoc lactis it was 0.883 µM (≈ 1.5 µg/mL); with Listeria innocua it was 7.07 µM (≈ 12 µg/mL); against Micrococcus luteus, 14.7 µM (≈ 25 µg/mL). Besides, the MIC in the test on Pasteurella multocida was at least 58.9 µM; against Staphylococcus aureus, 14.7 µM (≈ 25 µg/mL); in test [4], 1.77 µM (≈ 3 µg/mL); against Streptococcus uberis, 7.07 µM (≈ 12 µg/mL).

For the molecule `CC(C)[C@H](NC(=O)[C@@H](NC(=O)[C@H](CCCCN)NC(=O)CNC(=O)[C@@H](NC(=O)[C@@H](NC(=O)[C@H](CO)NC(=O)[C@@H](NC(=O)[C@@H](NC(=O)[C@@H]1CCCN1C(=O)[C@@H](NC(=O)[C@@H](NC(=O)CN)C(C)C)C(C)C)C(C)C)C(C)C)C(C)C)C(C)C)C(C)C)C(N)=O` [GVVPVVSVVGKVV], the MIC against Bacillus subtilis 168 is at least 100 µM; against Escherichia coli K-12, at least 100 µM; in test [5] it was above 100 µM; in [6], at least 100 µM.

Take `CC(C)C[C@H](NC(=O)[C@H](CC(C)C)NC(=O)[C@H](CCCCN)NC(=O)[C@H](CC(C)C)NC(=O)[C@H](CCCCN)NC(=O)[C@H](CC(C)C)NC(=O)[C@H](CCCCN)NC(=O)[C@H](CC(C)C)NC(=O)[C@H](CC(C)C)NC(=O)[C@H](CC(C)C)NC(=O)[C@@H](N)CCCCN)C(=O)N[C@@H](CCCCN)C(N)=O` [KLLLKLKLKLLK]: the MIC was at least 50 µM against Bacillus subtilis; 100 µM (≈ 145 µg/mL) in test [7]; 50 µM (≈ 72.5 µg/mL) in the test on Escherichia coli; at least 200 µM in test [8]; 100 µM (≈ 145 µg/mL) in test [9]; above 200 µM in test [10]. In addition, the MIC was 50 µM (≈ 72.5 µg/mL) in [11] and at least 50 µM in test [12].

In the case of `CC(C)C[C@H](NC(=O)[C@H](CCCCN)NC(=O)[C@H](CCCCN)NC(=O)[C@H](CC(C)C)NC(=O)[C@H](Cc1c[nH]c2ccccc12)NC(=O)[C@H](CCCCN)NC(=O)[C@H](CC(C)C)NC(=O)[C@H](CC(C)C)NC(=O)[C@H](CCCCN)NC(=O)[C@H](CCCCN)NC(=O)[C@@H](N)CC(C)C)C(N)=O` [LKKLLKWLKKL], the MIC amounted to 1.42 µM (≈ 2 µg/mL) in [13]; 1.42 µM (≈ 2 µg/mL) in test [2]; 1.42 µM (≈ 2 µg/mL) in test [14]; 2.84 µM (≈ 4 µg/mL) in test [15]; 5.67 µM (≈ 7.99 µg/mL) in [9]; 2.84 µM (≈ 4 µg/mL) in test [10]. The MIC in [16] is 1.42 µM (≈ 2 µg/mL); in test [17], 1.42 µM (≈ 2 µg/mL); in [18], 11.3 µM (≈ 16 µg/mL); in test [19] it was 1.42 µM (≈ 2 µg/mL).

With `CC(C)C[C@H](NC(=O)[C@H](Cc1c[nH]c2ccccc12)NC(=O)[C@H](CCCCN)NC(=O)[C@H](CCCCN)NC(=O)[C@H](CC(C)C)NC(=O)[C@H](Cc1c[nH]c2ccccc12)NC(=O)[C@H](CCCCN)NC(=O)[C@@H](N)CC(C)C)C(=O)N[C@@H](CCCCN)C(N)=O` [LKWLKKWLK], the MIC is at least 32.2 µM in test [13]; 32.2 µM (≈ 40 µg/mL) in test [2]; at least 64.4 µM in test [14]; at least 64.4 µM in test [15]; 32.2 µM (≈ 40 µg/mL) in [9]; above 64.4 µM in [10]. The MIC in test [16] is at least 64.4 µM; in [17], 8.05 µM (≈ 9.99 µg/mL); in [18], at least 64.4 µM; in test [19], 32.2 µM (≈ 40 µg/mL).

Regarding `CC(C)C[C@H](NC(=O)[C@H](CC(C)C)NC(=O)[C@H](CCCCN)NC(=O)[C@H](CCCCN)NC(=O)[C@H](CC(C)C)NC(=O)[C@H](CC(C)C)NC(=O)[C@H](CCCCN)NC(=O)[C@H](CCCCN)NC(=O)[C@H](CC(C)C)NC(=O)[C@@H](N)Cc1c[nH]c2ccccc12)C(=O)N[C@@H](CCCCN)C(N)=O` [WLKKLLKKLLK], the MIC in [13] was determined as 1.42 µM (≈ 2 µg/mL); in test [2], 2.84 µM (≈ 4 µg/mL); in [14], 1.42 µM (≈ 2 µg/mL); in [15] it was 2.84 µM (≈ 4 µg/mL); in [9] it was 5.67 µM (≈ 7.99 µg/mL); in test [10], 1.42 µM (≈ 2 µg/mL). The MIC in test [16] was determined as 1.42 µM (≈ 2 µg/mL); in [17], 1.42 µM (≈ 2 µg/mL); in test [18] it was 5.67 µM (≈ 7.99 µg/mL); in test [19], 1.42 µM (≈ 2 µg/mL).

Consider `CC(C)C[C@H](NC(=O)[C@H](CO)NC(=O)[C@H](CCCN=C(N)N)NC(=O)[C@H](CCCCN)NC(=O)[C@@H](NC(=O)[C@@H](NC(=O)CNC(=O)[C@H](CCCN=C(N)N)NC(=O)[C@H](Cc1cnc[nH]1)NC(=O)[C@H](Cc1c[nH]c2ccccc12)NC(=O)[C@H](Cc1ccccc1)NC(=O)[C@H](Cc1cnc[nH]1)NC(=O)[C@H](Cc1ccc(O)cc1)NC(=O)[C@@H](N)Cc1ccc(O)cc1)C(C)C)[C@@H](C)O)C(=O)N[C@@H](CO)C(=O)N1CCC[C@H]1C(=O)N[C@@H](Cc1cnc[nH]1)C(=O)O` [YYHFWHRGVTKRSLSPH], for which the MIC against Bacillus subtilis is at least 100 µM; in [7], above 100 µM; in the test with Escherichia coli it was 30 µM (≈ 65.1 µg/mL); in test [8] it was at least 100 µM; in [9], above 100 µM; in [10], above 100 µM. Besides, the MIC in test [11] was above 100 µM; in [12], at least 100 µM.
